Common to all, as to test: relative viability (nuclei count vs DMSO), 5 days (fraction); higher = more cells survive
Compound in the assay “Pemetrexed + Phenformin”: Nc1nc2[nH]cc(CCc3ccc(C(=O)N[C@@H](CCC(=O)O)C(=O)O)cc3)c2c(=O)[nH]1 [Pemetrexed] + N=C(N)NC(=N)NCCc1ccccc1 [Phenformin] (partner 250 µM)
In short, it runs like this: (§1)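 The day after seeding in 1536-well plates, lung cancer cell lines were treated by pin tool with a single drug, or with a fixed anchor-drug dose together with five library-drug doses (not always all listed) in √10 steps. After 5 days, a combined fix-and-stain solution (final 0.05% Triton X-100, 1% formaldehyde, 1 ug/ml Hoechst) was added. Nuclei counted on 4× images gave relative viability as treated counts over vehicle counts, reported as the median of duplicate plates.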

Compound in the assay “Idelalisib + Pictilisib”: CC[C@H](Nc1ncnc2[nH]cnc12)c1nc2cccc(F)c2c(=O)n1-c1ccccc1 [Idelalisib] + CS(=O)(=O)N1CCN(Cc2cc3nc(-c4cccc5[nH]ncc45)nc(N4CCOCC4)c3s2)CC1 [Pictilisib] (partner 1 µM)
The essentials:
as §1

Compound in the assay “Pemetrexed + AZD7762”: Nc1nc2[nH]cc(CCc3ccc(C(=O)N[C@@H](CCC(=O)O)C(=O)O)cc3)c2c(=O)[nH]1 [Pemetrexed] + NC(=O)Nc1cc(-c2cccc(F)c2)sc1C(=O)N[C@H]1CCCNC1 [AZD7762] (partner 0.2 µM)
In short, it runs like this: as §1

Compound in the assay “Pemetrexed + Bortezomib”: Nc1nc2[nH]cc(CCc3ccc(C(=O)N[C@@H](CCC(=O)O)C(=O)O)cc3)c2c(=O)[nH]1 [Pemetrexed] + CC(C)C[C@H](NC(=O)[C@H](Cc1ccccc1)NC(=O)c1cnccn1)B(O)O [Bortezomib] (partner 0.002 µM)
In short, it runs like this: as §1

In the case of NCI-H2347, the relative viability in the assay with Pemetrexed + Phenformin (first compound 0.002 µM) amounted to 0.203; with Pemetrexed + Phenformin (first compound 0.006325 µM), 0.369; with Pemetrexed + Phenformin (first compound 0.02 µM), 0.484; with Pemetrexed + Phenformin (first compound 0.06325 µM), 0.412; in the assay with Pemetrexed + Phenformin (first compound 0.2 µM) it was 0.387; with Idelalisib + Pictilisib (first compound 0.04 µM), 0.398. The relative viability with Idelalisib + Pictilisib (first compound 0.1265 µM) is 0.69; with Idelalisib + Pictilisib (first compound 0.4 µM), 0.487; with Idelalisib + Pictilisib (first compound 1.265 µM) it was 0.623; with Idelalisib + Pictilisib (first compound 4 µM) it was 0.756; with Pemetrexed + AZD7762 (first compound 0.002 µM), 0.61; with Pemetrexed + AZD7762 (first compound 0.006325 µM), 0.831. Besides, the relative viability in the assay with Pemetrexed + AZD7762 (first compound 0.02 µM) turned out to be 0.914; with Pemetrexed + AZD7762 (first compound 0.06325 µM) it was 0.517; with Pemetrexed + AZD7762 (first compound 0.2 µM), 0.428; with Pemetrexed + Bortezomib (first compound 0.002 µM), 0.678; with Pemetrexed + Bortezomib (first compound 0.006325 µM), 1.26; in the assay with Pemetrexed + Bortezomib (first compound 0.02 µM), 1.07. Also, the relative viability is 0.903 with Pemetrexed + Bortezomib (first compound 0.06325 µM) and 0.599 with Pemetrexed + Bortezomib (first compound 0.2 µM).

Regarding NCI-H2405, the relative viability is 0.37 in the assay with Pemetrexed + Phenformin (first compound 0.002 µM); 0.362 in the assay with Pemetrexed + Phenformin (first compound 0.006325 µM); 0.423 with Pemetrexed + Phenformin (first compound 0.02 µM); 0.432 in the assay with Pemetrexed + Phenformin (first compound 0.06325 µM); 0.392 in the assay with Pemetrexed + Phenformin (first compound 0.2 µM); 0.492 with Idelalisib + Pictilisib (first compound 0.04 µM). In addition, the relative viability with Idelalisib + Pictilisib (first compound 0.1265 µM) is 0.471; with Idelalisib + Pictilisib (first compound 0.4 µM) it was 0.387; in the assay with Idelalisib + Pictilisib (first compound 1.265 µM), 0.401; in the assay with Idelalisib + Pictilisib (first compound 4 µM), 0.447; with Pemetrexed + AZD7762 (first compound 0.002 µM) it was 0.781; in the assay with Pemetrexed + AZD7762 (first compound 0.006325 µM), 0.833. Besides, the relative viability with Pemetrexed + AZD7762 (first compound 0.02 µM) came to 0.843; in the assay with Pemetrexed + AZD7762 (first compound 0.06325 µM), 0.689; with Pemetrexed + AZD7762 (first compound 0.2 µM) it was 0.629; with Pemetrexed + Bortezomib (first compound 0.002 µM), 0.983; in the assay with Pemetrexed + Bortezomib (first compound 0.006325 µM), 0.974; with Pemetrexed + Bortezomib (first compound 0.02 µM), 1.05. In addition, the relative viability was determined as 0.986 with Pemetrexed + Bortezomib (first compound 0.06325 µM) and 0.96 with Pemetrexed + Bortezomib (first compound 0.2 µM).

Consider NCI-H3122, for which the relative viability came out at 0.419 in the assay with Pemetrexed + Phenformin (first compound 0.002 µM); 0.37 in the assay with Pemetrexed + Phenformin (first compound 0.006325 µM); 0.374 in the assay with Pemetrexed + Phenformin (first compound 0.02 µM); 0.336 with Pemetrexed + Phenformin (first compound 0.06325 µM); 0.205 in the assay with Pemetrexed + Phenformin (first compound 0.2 µM); 0.595 with Idelalisib + Pictilisib (first compound 0.04 µM). In addition, the relative viability with Idelalisib + Pictilisib (first compound 0.1265 µM) came out at 0.594; with Idelalisib + Pictilisib (first compound 0.4 µM), 0.551; with Idelalisib + Pictilisib (first compound 1.265 µM), 0.669; in the assay with Idelalisib + Pictilisib (first compound 4 µM), 0.557; in the assay with Pemetrexed + AZD7762 (first compound 0.002 µM), 1.04; with Pemetrexed + AZD7762 (first compound 0.006325 µM) it was 0.863. Besides, the relative viability came out at 0.966 in the assay with Pemetrexed + AZD7762 (first compound 0.02 µM); 0.4 with Pemetrexed + AZD7762 (first compound 0.06325 µM); 0.276 in the assay with Pemetrexed + AZD7762 (first compound 0.2 µM); 1.02 with Pemetrexed + Bortezomib (first compound 0.002 µM); 1.02 with Pemetrexed + Bortezomib (first compound 0.006325 µM); 0.899 with Pemetrexed + Bortezomib (first compound 0.02 µM). Also, the relative viability was 0.99 with Pemetrexed + Bortezomib (first compound 0.06325 µM) and 0.877 with Pemetrexed + Bortezomib (first compound 0.2 µM).

As for PC-3 [JPC-3], the relative viability in the assay with Pemetrexed + Phenformin (first compound 0.002 µM) was 0.476; in the assay with Pemetrexed + Phenformin (first compound 0.006325 µM), 0.517; in the assay with Pemetrexed + Phenformin (first compound 0.02 µM), 0.537; in the assay with Pemetrexed + Phenformin (first compound 0.06325 µM), 0.486; with Pemetrexed + Phenformin (first compound 0.2 µM) it was 0.478; with Idelalisib + Pictilisib (first compound 0.04 µM), 0.895. Moreover, the relative viability came out at 0.749 with Idelalisib + Pictilisib (first compound 0.1265 µM); 0.73 in the assay with Idelalisib + Pictilisib (first compound 0.4 µM); 0.737 with Idelalisib + Pictilisib (first compound 1.265 µM); 0.601 in the assay with Idelalisib + Pictilisib (first compound 4 µM); 0.448 with Pemetrexed + AZD7762 (first compound 0.002 µM); 0.968 with Pemetrexed + AZD7762 (first compound 0.006325 µM). Moreover, the relative viability with Pemetrexed + AZD7762 (first compound 0.02 µM) came to 1; with Pemetrexed + AZD7762 (first compound 0.06325 µM), 0.808; in the assay with Pemetrexed + AZD7762 (first compound 0.2 µM) it was 0.861; with Pemetrexed + Bortezomib (first compound 0.002 µM), 0.66; in the assay with Pemetrexed + Bortezomib (first compound 0.006325 µM) it was 0.74; with Pemetrexed + Bortezomib (first compound 0.02 µM), 0.925. Also, the relative viability with Pemetrexed + Bortezomib (first compound 0.06325 µM) amounted to 0.854; with Pemetrexed + Bortezomib (first compound 0.2 µM), 0.772.

PC-14: the relative viability with Pemetrexed + Phenformin (first compound 0.002 µM) came out at 0.452; in the assay with Pemetrexed + Phenformin (first compound 0.006325 µM), 0.582; with Pemetrexed + Phenformin (first compound 0.02 µM) it was 0.901; with Pemetrexed + Phenformin (first compound 0.06325 µM) it was 0.445; in the assay with Pemetrexed + Phenformin (first compound 0.2 µM), 0.27; with Idelalisib + Pictilisib (first compound 0.04 µM), 0.765. Further, the relative viability in the assay with Idelalisib + Pictilisib (first compound 0.1265 µM) is 0.788; in the assay with Idelalisib + Pictilisib (first compound 0.4 µM), 0.705; in the assay with Idelalisib + Pictilisib (first compound 1.265 µM), 0.688; with Idelalisib + Pictilisib (first compound 4 µM) it was 0.506; with Pemetrexed + AZD7762 (first compound 0.002 µM), 0.297; with Pemetrexed + AZD7762 (first compound 0.006325 µM), 0.371. Moreover, the relative viability with Pemetrexed + AZD7762 (first compound 0.02 µM) came to 0.35; in the assay with Pemetrexed + AZD7762 (first compound 0.06325 µM), 0.218; with Pemetrexed + AZD7762 (first compound 0.2 µM) it was 0.114; with Pemetrexed + Bortezomib (first compound 0.002 µM), 0.873; in the assay with Pemetrexed + Bortezomib (first compound 0.006325 µM) it was 0.85; with Pemetrexed + Bortezomib (first compound 0.02 µM), 0.808. In addition, the relative viability with Pemetrexed + Bortezomib (first compound 0.06325 µM) is 0.544; with Pemetrexed + Bortezomib (first compound 0.2 µM), 0.188.

With RERF-LC-KJ, the relative viability with Pemetrexed + Phenformin (first compound 0.002 µM) came out at 0.435; with Pemetrexed + Phenformin (first compound 0.006325 µM), 0.439; with Pemetrexed + Phenformin (first compound 0.02 µM), 0.43; with Pemetrexed + Phenformin (first compound 0.06325 µM), 0.411; with Pemetrexed + Phenformin (first compound 0.2 µM) it was 0.349; with Idelalisib + Pictilisib (first compound 0.04 µM), 0.493. In addition, the relative viability with Idelalisib + Pictilisib (first compound 0.1265 µM) was 0.521; in the assay with Idelalisib + Pictilisib (first compound 0.4 µM) it was 0.581; with Idelalisib + Pictilisib (first compound 1.265 µM), 0.516; in the assay with Idelalisib + Pictilisib (first compound 4 µM) it was 0.53; with Pemetrexed + AZD7762 (first compound 0.002 µM), 0.837; with Pemetrexed + AZD7762 (first compound 0.006325 µM), 1.49. In addition, the relative viability in the assay with Pemetrexed + AZD7762 (first compound 0.02 µM) was found to be 0.919; in the assay with Pemetrexed + AZD7762 (first compound 0.06325 µM) it was 1.04; with Pemetrexed + AZD7762 (first compound 0.2 µM), 0.618; in the assay with Pemetrexed + Bortezomib (first compound 0.002 µM), 1.13; with Pemetrexed + Bortezomib (first compound 0.006325 µM), 1.06; in the assay with Pemetrexed + Bortezomib (first compound 0.02 µM), 1.13. The relative viability turned out to be 1.04 in the assay with Pemetrexed + Bortezomib (first compound 0.06325 µM) and 0.82 in the assay with Pemetrexed + Bortezomib (first compound 0.2 µM).

The values above are taken from the supplement of paper PMC10307832.
